Assay results published in US4584377A, “Novel Fredericamycin A derivatives” (SS Pharmaceutical Co., Ltd., priority 1983, dated 1986).
≈ marks a conversion by molar mass, not a printed value. Read-outs that look alike come from different tables or passages of the source.

Legend:
various microorganisms [1] = experiment: Antibacterial activities against the tested microorganisms (general statement); type: cell-based; conditions: for each of the tested microorganism (Table 1)
Experimental: It should be noted that the MIC of Fredericamycin A was 100 μg/ml or more for each of the tested microorganism.
Culture conditions for the test microorganisms:
Inoculum size: 1×10^6 cells/ml. In the case of bacteria, each bacterium was cultured at 37° C. for 18-20 hours on a Mueller-Hinton agar (product of Difco Corp.). In the case of yeasts and molds, each microorganism was cultured at 28° C. for 120 hours on a glucose-peptone agar.

[2] = prior art statement; cited from earlier work
physchem = type: physicochemical; conditions: 10 μg/ml in dimethylsulfoxide/physiological saline
Experimental: The stability of some Fredericamycin A derivatives and Fredericamycin A in their aqueous solutions were tested in accordance with the following procedures.
The test compounds were individually dissolved in dimethylsulfoxide, followed by dilution of the resulting solutions with physiological saline to adjust the final concentrations of the test compounds and Fredericamycin to 10 μg/ml respectively. The thus-prepared test solutions were then subjected to high performance liquid chromatography after predetermined time intervals to measure the percentage remainders of the test compounds.

various microorganisms [3] = conditions: prior art statement; cited from earlier work
Shigella flexneri 2b = experiment: MIC, antibacterial activity (agar culture); type: cell-based; conditions: 37° C., 18-20 hours, Mueller-Hinton agar, read-out: Minimum inhibitory concentration MIC
[4] = system: Aspergillus oryzae IFM 4014; experiment: MIC, yeasts and molds (agar culture); type: cell-based; conditions: IFM4014, 28° C., 120 hours, glucose-peptone agar, read-out: Minimum inhibitory concentration MIC
[5] = system: Trichophyton mentagrophytes QM 248; experiment: MIC, yeasts and molds (agar culture); type: cell-based; conditions: QM248, 28° C., 120 hours, glucose-peptone agar, read-out: Minimum inhibitory concentration MIC
[6] = system: Bacillus subtilis ATCC 6633; experiment: MIC, antibacterial activity (agar culture); type: cell-based; conditions: ATCC6633, 37° C., 18-20 hours, Mueller-Hinton agar, read-out: Minimum inhibitory concentration MIC
[7] = system: Micrococcus lysodeikticus IFO 3333; experiment: MIC, antibacterial activity (agar culture); type: cell-based; conditions: Micrococcus luteus, IFO3333, 37° C., 18-20 hours, Mueller-Hinton agar, read-out: Minimum inhibitory concentration MIC
[8] = system: Microsporum gypseum IFO 8231; experiment: MIC, yeasts and molds (agar culture); type: cell-based; conditions: Nannizzia gypsea, IFO8231, 28° C., 120 hours, glucose-peptone agar, read-out: Minimum inhibitory concentration MIC
Saccharomyces ruxii 6507 = experiment: MIC, yeasts and molds (agar culture); type: cell-based; conditions: 28° C., 120 hours, glucose-peptone agar, read-out: Minimum inhibitory concentration MIC
Meth-A fibrosarcoma = experiment: Antitumor effect, survival of tumor-inoculated mice; type: in vivo, CDF1 mice; conditions: intraperitoneally, once a day for 10 days
Experimental: (§1) Antitumor effects of some Fredericamycin A derivatives against Ehrlich carcinoma, Meth-A fibrosarcoma and mouse leukemia P-388 were tested in accordance with the following procedures. Antitumor effects against Ehrlich carcinoma and Meth-A fibrosarcoma are expressed by percentage of mean survival time of test and control animals. Antitumor effects against P-388 are expressed by percentage of median survival time of test and control animals.
(§2) (ii) Meth-A fibrosarcoma and mouse leukemia P-388:
(§3) 1×10^6 tumor cells were inoculated to CDF1 mice (.male., Charles River Japan Inc.) intraperitoneally. Each tested compound was given intraperitoneally once a day for 10 days from 1 day after tumor inoculation.

[9] = system: Fusarium moniliforme IAM 5062; experiment: MIC, yeasts and molds (agar culture); type: cell-based; conditions: Fusarium verticillioides, IAM5062, 28° C., 120 hours, glucose-peptone agar, read-out: Minimum inhibitory concentration MIC
Escherichia coli 0-1 = experiment: MIC, antibacterial activity (agar culture); type: cell-based; conditions: 01, 37° C., 18-20 hours, Mueller-Hinton agar, read-out: Minimum inhibitory concentration MIC
[10] = system: Aspergillus niger ATCC 9642; experiment: MIC, yeasts and molds (agar culture); type: cell-based; conditions: ATCC9642, 28° C., 120 hours, glucose-peptone agar, read-out: Minimum inhibitory concentration MIC
[11] = system: Pseudomonas aeruginosa IFO 13736; experiment: MIC, antibacterial activity (agar culture); type: cell-based; conditions: IFO13736, 37° C., 18-20 hours, Mueller-Hinton agar, read-out: Minimum inhibitory concentration MIC
[12] = system: Streptococcus faecalis IFO 12964; experiment: MIC, antibacterial activity (agar culture); type: cell-based; conditions: Enterococcus faecalis, IFO12964, 37° C., 18-20 hours, Mueller-Hinton agar, read-out: Minimum inhibitory concentration MIC
Seratia marcescens NHL = experiment: MIC, antibacterial activity (agar culture); type: cell-based; conditions: 37° C., 18-20 hours, Mueller-Hinton agar, read-out: Minimum inhibitory concentration MIC
Sarcina lutea ATCC 9341 = experiment: MIC, antibacterial activity (agar culture); type: cell-based; conditions: Micrococcus luteus, ATCC9341, 37° C., 18-20 hours, Mueller-Hinton agar, read-out: Minimum inhibitory concentration MIC
[13] = system: Staphylococcus aureus TERAGIMA; experiment: MIC, antibacterial activity (agar culture); type: cell-based; conditions: 37° C., 18-20 hours, Mueller-Hinton agar, read-out: Minimum inhibitory concentration MIC
[14] = system: Gibberella fujikuroi IAM 8046; experiment: MIC, yeasts and molds (agar culture); type: cell-based; conditions: Fusarium fujikuroi, IAM8046, 28° C., 120 hours, glucose-peptone agar, read-out: Minimum inhibitory concentration MIC
[15] = system: Staphylococcus aureus Smith; experiment: MIC, antibacterial activity (agar culture); type: cell-based; conditions: 37° C., 18-20 hours, Mueller-Hinton agar, read-out: Minimum inhibitory concentration MIC
[16] = system: Helmintsporium sesamum IAM 5012; experiment: MIC, yeasts and molds (agar culture); type: cell-based; conditions: 28° C., 120 hours, glucose-peptone agar, read-out: Minimum inhibitory concentration MIC
Salmonella typhi TD = experiment: MIC, antibacterial activity (agar culture); type: cell-based; conditions: Salmonella enterica, read-out: Minimum inhibitory concentration MIC
[17] = system: Debaryomyces Kloecheri IFO 0015; experiment: MIC, yeasts and molds (agar culture); type: cell-based; conditions: IFO0015, 28° C., 120 hours, glucose-peptone agar, read-out: Minimum inhibitory concentration MIC
Ehrlich carcinoma = experiment: Antitumor effect, survival of tumor-inoculated mice; type: in vivo, ICR mice; conditions: Mus musculus, ip, 240 h, intraperitoneally, once a day for 10 days, read-out: percentage of mean survival time of test and control animals
[18] = system: Candida albicans NHL 4019; experiment: MIC, yeasts and molds (agar culture); type: cell-based; conditions: NHL4019, 28° C., 120 hours, glucose-peptone agar, read-out: Minimum inhibitory concentration MIC
[19] = system: Cladosporium fulvum IAM 5006; experiment: MIC, yeasts and molds (agar culture); type: cell-based; conditions: Fulvia fulva, IAM5006, 28° C., 120 hours, glucose-peptone agar, read-out: Minimum inhibitory concentration MIC
[20] = system: Klebsiella pneumoniae ATCC 10031; experiment: MIC, antibacterial activity (agar culture); type: cell-based; conditions: ATCC10031, 37° C., 18-20 hours, Mueller-Hinton agar, read-out: Minimum inhibitory concentration MIC
Proteus vulgaris OXK = experiment: MIC, antibacterial activity (agar culture); type: cell-based; conditions: 37° C., 18-20 hours, Mueller-Hinton agar, read-out: Minimum inhibitory concentration MIC
[21] = system: Staphylococcus epidermidis ATCC 12228; experiment: MIC, antibacterial activity (agar culture); type: cell-based; conditions: ATCC12228, 37° C., 18-20 hours, Mueller-Hinton agar, read-out: Minimum inhibitory concentration MIC
[22] = system: Staphylococcus aureus FDA 209P; experiment: MIC, antibacterial activity (agar culture); type: cell-based; conditions: FDA209P, 37° C., 18-20 hours, Mueller-Hinton agar, read-out: Minimum inhibitory concentration MIC
[23] = system: Piricularia oryzae IAM 5016; experiment: microbe, parasite or virus in culture; type: cell-based
[24] = system: Penicillium chrysogenum ATCC 6010; experiment: MIC, yeasts and molds (agar culture); type: cell-based; conditions: ATCC6010, 28° C., 120 hours, glucose-peptone agar, read-out: Minimum inhibitory concentration MIC
mouse leukemia P-388 = experiment: Antitumor effect, survival of tumor-inoculated mice; type: in vivo, CDF1 mice; conditions: intraperitoneally, once a day for 10 days
Experimental: as §1, §2, §3

C/C=C/C=C/c1cc2cc3c(c(O)c2c(=O)[nH]1)C1(CC3)C(=O)c2c(O)c3c(c(O)c2C1=O)C(=O)C(OC)=CC3=O (stereo not shown) [Fredericamycin A]
MIC (various microorganisms [1]): ≥ 100 µg/mL
stability [2]: low
Percentage remainder (physchem; 0 hr.): 100%
remaining at 3 h (physchem; 3 hrs., read-out: Percentage remainder): 78.9%
remaining at 6 h (physchem; 6 hrs., read-out: Percentage remainder): 64%
remaining at 24 h (physchem; 24 hrs., read-out: Percentage remainder): 38.1%
remaining at 48 h (physchem; 48 hrs., read-out: Percentage remainder): 27.3%
remaining at 72 h (physchem; 72 hrs., read-out: Percentage remainder): 18.4%
antibacterial activities (various microorganisms [3]): weak

C/C=C/C=C/c1cc2cc3c(c(O)c2c(=O)[nH]1)C1(CC3)C(=O)c2c(OC(C)=O)c3c(c(OC(C)=O)c2C1=O)C(=O)C(OC)=CC3=O (stereo not shown) [Compound 1, Fredericamycin A diacetate]
MIC (Shigella flexneri 2b): > 100 µg/mL
MIC [4]: 1.56 µg/mL
MIC [5]: 0.39 µg/mL
MIC [6]: 0.39 µg/mL
MIC [7]: 0.78 µg/mL
MIC [8]: 0.39 µg/mL
MIC (Saccharomyces ruxii 6507): 0.39 µg/mL
percentage of mean survival time of test and control animals (Meth-A fibrosarcoma; 0.25 mg/kg/day): 127%
percentage of mean survival time of test and control animals (Meth-A fibrosarcoma; 0.5 mg/kg/day): 191%
percentage of mean survival time of test and control animals (Meth-A fibrosarcoma; 1.0 mg/kg/day): 242%
MIC [9]: 50 µg/mL
MIC (Escherichia coli 0-1): > 100 µg/mL
MIC [10]: 3.12 µg/mL
MIC [11]: > 100 µg/mL
MIC [12]: 1.56 µg/mL
MIC (Seratia marcescens NHL): > 100 µg/mL
MIC (Sarcina lutea ATCC 9341): 0.39 µg/mL
MIC [13]: 12.5 µg/mL
MIC [14]: > 100 µg/mL
MIC [15]: 6.25 µg/mL
MIC [16]: 0.78 µg/mL
MIC (Salmonella typhi TD): > 100 µg/mL
MIC [17]: 100 µg/mL
response vs control in vivo at 0.125 mg/kg/day (Ehrlich carcinoma; 0.125 mg/kg/day): 147%
response vs control in vivo at 0.25 mg/kg/day (Ehrlich carcinoma; 0.25 mg/kg/day): 267%
response vs control in vivo at 0.5 mg/kg/day (Ehrlich carcinoma; 0.5 mg/kg/day): 295%
MIC [18]: > 100 µg/mL
MIC [19]: 1.56 µg/mL
MIC [20]: > 100 µg/mL
MIC (Proteus vulgaris OXK): > 100 µg/mL
MIC [21]: 0.1 µg/mL
MIC [22]: 50 µg/mL
MIC ([23]; 120 h; read-out: Minimum inhibitory concentration MIC): 0.05 µg/mL
MIC [24]: 0.78 µg/mL

CCCCCc1cc2cc3c(c(O)c2c(=O)[nH]1)C1(CC3)C(=O)c2c(OC(C)=O)c3c(c(OC(C)=O)c2C1=O)C(=O)C(OC)=CC3=O (stereo not shown) [Compound 18, diacetyltetrahydrofredericamycin A]
MIC [5]: > 100 µg/mL
MIC [6]: 50 µg/mL (≈ 79.7 µM)
MIC [7]: 25 µg/mL (≈ 39.8 µM)
MIC (Saccharomyces ruxii 6507): > 100 µg/mL
percentage of median survival time of test and control animals (mouse leukemia P-388; 2.0 mg/kg/day): 138%
percentage of median survival time of test and control animals (mouse leukemia P-388; 4.0 mg/kg/day): 142%
percentage of median survival time of test and control animals (mouse leukemia P-388; 8.0 mg/kg/day): 147%
MIC (Escherichia coli 0-1): > 100 µg/mL
MIC [10]: > 100 µg/mL
MIC [11]: > 100 µg/mL
MIC [12]: 25 µg/mL (≈ 39.8 µM)
MIC (Sarcina lutea ATCC 9341): 25 µg/mL (≈ 39.8 µM)
MIC [15]: 25 µg/mL (≈ 39.8 µM)
MIC [17]: > 100 µg/mL
response vs control in vivo at 2 mg/kg/day (Ehrlich carcinoma; 2.0 mg/kg/day): 125%
response vs control in vivo at 4 mg/kg/day (Ehrlich carcinoma; 4.0 mg/kg/day): > 188%
response vs control in vivo at 8 mg/kg/day (Ehrlich carcinoma; 8.0 mg/kg/day): > 212%
MIC [18]: > 100 µg/mL
MIC [21]: 0.78 µg/mL (≈ 1.24 µM)
MIC ([23]; 120 h, read-out: Minimum inhibitory concentration MIC): 0.78 µg/mL (≈ 1.24 µM)
MIC [24]: > 100 µg/mL
